Legend:
serum 5-HT = assay: Part 2 MAD biomarker: serum 5-HT change from Day 1; type: in vivo, human
Excerpt: (§1) Biomarkers were to be evaluated in Part 2 by measuring concentrations of serotonin (5-hydroxytryptamine [5-HT]) in serum and 5-hydroxyindoleacetic acid (5-HIAA) in plasma and urine. As well, the relationship of biomarkers to PK parameters was to be evaluated.
(§2) The biomarker analysis was to be based on the Biomarker Population (all subjects with evaluable biomarker measurements at baseline [Day 1 predose] and at least one after dosing [Day 7 or Day 14]).
(§3) Biomarker data were to be collected only in Part 2. The following biomarkers were to be analyzed: • Serum 5-HT • Plasma 5-HIAA • Urine 5-HIAA/24 hours (as measured, adjusted, estimated, and per gram creatinine)
(§4) Linear regression was to be performed using biomarker changes, absolute and relative (%), from Day 1, at predose on Day 7 or Day 14 versus AUC0-24, Cmax, and Cmin in corresponding study days. The slopes and corresponding 95% confidence intervals (CIs) were to be tabulated.
(§5) Summary statistics (mean, standard deviation [SD], median, minimum [Min], and maximum [Max]) were to be tabulated for each biomarker, by Cohort, with absolute and relative (%) changes from Day 1 predose.
(§6) The values were to be tabulated with P values testing whether the difference of changes was equal to 0.
(§7) The biomarker portion of the study was conducted in Part 2 MAD using the Biomarker Population. The biomarkers evaluated were serum 5-HT and plasma 5-HIAA, as well as urine 5-HIAA/24 hours (as measured, adjusted, estimated, and per gram creatinine). Urinary 5-HIAA was determined by a validated (21 C.F.R. 58, GLP-compliant) method using liquid chromatographic separation and tandem mass spectrometry detection.
(§8) The Biomarker Population consisted of all subjects with evaluable baseline (Day 1 predose) and at least one postdose (Day 7 or Day 14) biomarker measurements.
(§9) Biomarker data were analyzed for each KAR5585 dose separately, for all KAR5585 doses pooled, and for all placebo subjects pooled. […]

[1] = system: plasma 5-HIAA (a PD marker of 5-HT synthesis); assay: Part 2 MAD biomarker: plasma 5-HIAA change from Day 1; type: in vivo, human
Excerpt: as §1, §2, §3
The a priori primary biomarker endpoint was to be the change in plasma 5-HIAA concentration on Day 14 from Day 1.
as §4, §5, §6, §7, §8, §9

clinical = settings: human, plasma, oral, 100 mg
Procedure: Food effect was to be evaluated in Part 1, Period 2.
Part 2 (MAD): BID doses (separated by approximately 12 hours on Days 1 to 13) and a single AM dose on Day 14. One or more of the MAD Cohort could have been dosed once daily (QD).
Pharmacokinetic data were to be summarized descriptively.

[2] = Safety and tolerability in healthy adult subjects (Study KAR5585-101); type: in vivo, human

| Structure (SMILES) | correlation of change from baseline in serum 5-HT with AUC0-24, Cmax, C12 or AUC0-12 (serum 5-HT; Day 7) | correlation of change from baseline in serum 5-HT with AUC0-24, Cmax, C12 or AUC0-12 (serum 5-HT; Day 14) | correlation of absolute and relative changes from baseline in plasma 5-HIAA with AUC0-24, Cmax, C12 and AUC0-12 ([1]; Day 14) | concentration at 24 h (clinical) [ng/mL] | mean difference of percent changes from Day 1 in serum 5-HT compared to placebo (serum 5-HT; Day 7, 200 mg fed dose group) | tolerability ([2]; 400 mg single oral dose under fed conditions, 9 healthy adult subjects) | tolerability throughout the trial ([2]; Part 1 and Part 2, all doses) | safety and tolerability ([2]; multiple ascending oral doses 100-400 mg BID up to 14 days, 36 healthy adult subjects) | mean percent difference of change from Day 1 in plasma 5-HIAA between KAR5585 and placebo ([1]; Day 7, any dose group) | mean difference of changes from Day 1 to Day 14 in plasma 5-HIAA compared to placebo ([1]; each dose group and all doses combined, Day 14) |
| --- | --- | --- | --- | --- | --- | --- | --- | --- | --- | --- |
| Nc1nc(O[C@H](c2ccc(Cl)cc2-c2ccccc2)C(F)(F)F)cc(N2CCC3(CC2)CN[C@H](C(=O)O)C3)n1 [KAR5417, (S)-8-(2-amino-6-((R)-1-(5-chloro-[1,1′-biphenyl]-2-yl)-2,2,2-trifluoroeth-oxy)pyrimidin-4-yl)-2,8-diazaspiro[4.5]decane-3-carboxylic acid] | no significant correlations | correlated | significantly correlated | 19.7 | – | – | – | – | – | – |
| CCOC(=O)[C@@H]1CC2(CCN(c3cc(O[C@H](c4ccc(Cl)cc4-c4ccccc4)C(F)(F)F)nc(N)n3)CC2)CN1 [KAR5585, (S)-ethyl 8-(2-amino-6-((R)-1-(5-chloro-[1,1′-biphenyl]-2-yl)-2,2,2-trifluoroethoxy)pyrimidin-4-yl)-2,8-diazaspiro[4.5]decane-3-carboxylate] | – | – | – | – | statistically significant | well-tolerated | well tolerated throughout the trial | safe and well-tolerated | not significant | statistically significant in favor of KAR5585 |

Source: patent US20200237759A1, “DOSAGE REGIME AND METHOD FOR TREATING PULMONARY ARTERIAL HYPERTENSION” (Altavant Sciences GmbH, priority 2019, published 2020)
